Results reported in PubChem BioAssay AID2060508 (Molecular Pharmacology Branch, DTP, NCI, 2025).

Tested on: 454973-116-R2-J3-PDC spheroids, viability, % test/control
Test: Anticancer human tumor 454973-116-R2-J3-PDC patient-derived pancreatic carcinoma cell line growth inhibition [GQUAD]
Conditions: spheroids with HUVEC and MSC; for IC50: curve of first compound; for viability, T/C: stronger effect = lower value
In short: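 Tumor cells were grown as complex spheroids with HUVEC endothelial cells and mesenchymal stem cells as stroma. G-quadruplex stabilizers were combined with targeted agents over half-log dilutions from near the clinical Cmax, or from 10 microM.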

[1] = second compound 0.0316 µM, first compound 0.0316 µM
[2] = second compound 0.0316 µM, first compound 0.1 µM
[3] = second compound 0.0316 µM, first compound 0.316 µM
[4] = second compound 0.0316 µM, first compound 1 µM
[5] = second compound 0.0316 µM, first compound 3.16 µM
[6] = second compound 0.0316 µM, first compound 10 µM
[7] = second compound 0.1 µM, first compound 0.0316 µM
[8] = second compound 0.1 µM, first compound 0.1 µM
[9] = second compound 0.1 µM, first compound 0.316 µM
[10] = second compound 0.1 µM, first compound 1 µM
[11] = second compound 0.1 µM, first compound 3.16 µM
[12] = second compound 0.1 µM, first compound 10 µM
[13] = second compound 0.316 µM, first compound 0.0316 µM
[14] = second compound 0.316 µM, first compound 0.1 µM
[15] = second compound 0.316 µM, first compound 0.316 µM
[16] = second compound 0.316 µM, first compound 1 µM
[17] = second compound 0.316 µM, first compound 3.16 µM
[18] = second compound 0.316 µM, first compound 10 µM
[19] = second compound 1 µM, first compound 0.0316 µM
[20] = second compound 1 µM, first compound 0.1 µM
[21] = second compound 1 µM, first compound 0.316 µM
[22] = second compound 1 µM, first compound 1 µM
[23] = second compound 1 µM, first compound 3.16 µM
[24] = second compound 1 µM, first compound 10 µM
[25] = second compound 3.16 µM, first compound 0.0316 µM
[26] = second compound 3.16 µM, first compound 0.1 µM
[27] = second compound 3.16 µM, first compound 0.316 µM
[28] = second compound 3.16 µM, first compound 1 µM
[29] = second compound 3.16 µM, first compound 3.16 µM
[30] = second compound 3.16 µM, first compound 10 µM
[31] = second compound 10 µM, first compound 0.0316 µM
[32] = second compound 10 µM, first compound 0.1 µM
[33] = second compound 10 µM, first compound 0.316 µM
[34] = second compound 10 µM, first compound 1 µM
[35] = second compound 10 µM, first compound 3.16 µM
[36] = second compound 10 µM, first compound 10 µM
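Further: spheroids exposed to compounds for seven days.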
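Wherever viability, T/C is given: 100% = DMSO vehicle control viability.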

`C#Cc1c(F)ccc2cc(O)cc(-c3ncc4c(N5CC6CCC(C5)N6)nc(OCC56CCCN5CC(F)C6)nc4c3F)c12` (centres undefined) + Cc1[nH]c2ccc(F)cc2c1-c1nc2c3cccnc3c3ncccc3c2[nH]1 gave an IC50 (second compound 0.0316 µM) of 55.4 nM, an IC50 (second compound 0.1 µM) of 72.2 nM and an IC50 (second compound 0.316 µM) of 56.2 nM. It also gave an IC50 (second compound 1 µM) of 57 nM, an IC50 (second compound 3.16 µM) of 34.6 nM and an IC50 (second compound 10 µM) of under 31.6 nM. It also gave a viability, T/C [1] of 59.5%, a viability, T/C [2] of 40.2% and a viability, T/C [3] of 27.5%. It also gave a viability, T/C [4] of 25.1%, a viability, T/C [5] of 21.5% and a viability, T/C [6] of 15.5%. The viability, T/C [7] was 63.5%, the viability, T/C [8] was 43.4% and the viability, T/C [9] was 34.5%. For the same compound, the viability, T/C [10] was 24.4%, the viability, T/C [11] was 21.9% and the viability, T/C [12] was 17%. It also gave a viability, T/C [13] of 57.2%, a viability, T/C [14] of 45.2% and a viability, T/C [15] of 27.7%. It also gave a viability, T/C [16] of 23.9%, a viability, T/C [17] of 29.6% and a viability, T/C [18] of 17.5%. The viability, T/C [19] was 58.6%, the viability, T/C [20] was 41.8% and the viability, T/C [21] was 29.8%. For the same compound, the viability, T/C [22] was 22.9%, the viability, T/C [23] was 17.6% and the viability, T/C [24] was 15.4%. The viability, T/C [25] was 52.1%, the viability, T/C [26] was 35.5% and the viability, T/C [27] was 27.2%. The viability, T/C [28] was 21.1%, the viability, T/C [29] was 19.6% and the viability, T/C [30] was 12.8%. For the same compound, the viability, T/C [31] was 48.1%, the viability, T/C [32] was 36.9% and the viability, T/C [33] was 26.2%. It also gave a viability, T/C [34] of 17.6%, a viability, T/C [35] of 16.8% and a viability, T/C [36] of 12.3%.
Work on `CC(=O)O[C@H]1C(=O)[C@@]2(C)[C@H]([C@H](OC(=O)c3ccccc3)[C@]3(O)C[C@H](OC(=O)[C@H](O)[C@@H](NC(=O)c4ccccc4)c4ccccc4)C(C)=C1C3(C)C)[C@]1(OC(C)=O)CO[C@@H]1C[C@@H]2O` + Cc1[nH]c2ccc(F)cc2c1-c1nc2c3cccnc3c3ncccc3c2[nH]1 yielded an IC50 (second compound 0.0316 µM) of under 31.6 nM, an IC50 (second compound 0.1 µM) of under 31.6 nM and an IC50 (second compound 0.316 µM) of under 31.6 nM. The IC50 (second compound 1 µM) was under 31.6 nM, the IC50 (second compound 3.16 µM) was under 31.6 nM and the IC50 (second compound 10 µM) was under 31.6 nM. It also gave a viability, T/C [1] of 15.2%, a viability, T/C [2] of 8.26% and a viability, T/C [3] of 7.28%. For the same compound, the viability, T/C [4] was 6.32%, the viability, T/C [5] was 7.13% and the viability, T/C [6] was 7.83%. It also gave a viability, T/C [7] of 14.5%, a viability, T/C [8] of 9.64% and a viability, T/C [9] of 7.87%. The viability, T/C [10] was 6.95%, the viability, T/C [11] was 7.87% and the viability, T/C [12] was 8.54%. The viability, T/C [13] was 14.6%, the viability, T/C [14] was 9.07% and the viability, T/C [15] was 5.61%. The viability, T/C [16] was 5.86%, the viability, T/C [17] was 5.85% and the viability, T/C [18] was 9.29%. For the same compound, the viability, T/C [19] was 12.3%, the viability, T/C [20] was 7.44% and the viability, T/C [21] was 6.58%. For the same compound, the viability, T/C [22] was 5.96%, the viability, T/C [23] was 7.37% and the viability, T/C [24] was 10.1%. For the same compound, the viability, T/C [25] was 11.1%, the viability, T/C [26] was 8.56% and the viability, T/C [27] was 7.65%. It also gave a viability, T/C [28] of 6.65%, a viability, T/C [29] of 6.16% and a viability, T/C [30] of 9.4%. For the same compound, the viability, T/C [31] was 12.5%, the viability, T/C [32] was 8.79% and the viability, T/C [33] was 7.16%. For the same compound, the viability, T/C [34] was 7.79%, the viability, T/C [35] was 7.84% and the viability, T/C [36] was 7.93%.
